This is an account of results in patent US20040067547A1, “Rapid method for detecting micro-organisms and evaluating antimicrobial activity” (priority 1998, published 2004).

This test relates to Streptococcus pneumoniae. In words: Antibiotic sensitivity testing by zeta potential measurement (ZETASIZER 2000). It is filed as cell-based. The following applies: about 10^5 cells in growth medium with penicillin at 0.01 g/ml, incubated at 37° C. for 3 h; about 0 mV = dead cells, untreated −27.9 mV. Here is the method:
The following Example illustrates a particular embodiment of the invention: Streptococcus pneumoniae was grown for about 4 h in laked horse blood medium. Aliqouts, representing about 10^5 cells, were transferred to two tubes containing growth medium: one of these also contained penicillin at 0.01 g/ml. The zeta potential of both samples was measured using a ZETASIZER 2000 (RTM) from Malvern Instruments. The tubes were incubated at 37° C. for 3 h, and the zeta potential of each measured again. […] There is a clear difference in these profiles. In both Figures, the peak at 0 mV represents dead cells. The zeta potential of all dead micro-organisms is close to 0 mV: without wishing to be bound by a particular theory, it is believed that these changes are brought about by the vacuolation of the cells, resulting in the zeta potential decaying to about 0 mv. The other peak in FIG. 4 is believed also to be cells of S pneumoniae, but which are […].

penicillin: the “Mean Zeta Potential for S pneumoniae” value is on record as −0.3 mV.
